Data published in patent publication US12329722B2, “Finished pharmaceutical form with individual medicine dosing capability (embodiments) and methods of its production and use” (PSIMOS, INC., priority 2016, dated 2025).
Blank lines part the entries; values can stand above or below the molecule they belong to.

Legend:
Format in all cases: physicochemical
[1] = desorption of applied medicine from porous media to potable water; settings: 50 ml of potable water
[2] = quantity of medicine that can be applied on unit area of porous media with a jet printer; settings: fiberglass membrane made by Algstrem
Description: Using a jet printer with rechargeable cartridges the solution was applied on a 236.5 cm^2 specimen of media made from cellulose filtering material (size 21.5*1 1 cm^2, format Letter) with different printing qualities in dpi and different area filling densities. […] Following that the quantity of acetylsalicylic acid applied per unit area was analyzed depending on software controlled printing quality (in dpi). Using the specially plotted graduation curve the required printing densities in dpi were selected for applying 130 mg per 0.25 cm^2, or 520 mg/cm^2. The specimen was dried in a hot air flow for guaranteed removal of the water/alcohol solvent and packaged in a polymer container protecting the specimen from direct sunlight. Then the specimen was removed from the container and placed in a glass with water.
A similar procedure was conducted for d, 1-2-(4-isobutylphenyl)-propionic acid (the active pharmaceutical substance of the Ibuprofen medicine) and a fiberglass membrane made by Algstrem, USA, used in immunology.

[3] = stability of medicine during application with a piezoelectric apparatus (chromatography); settings: heat from piezoelectric apparatus above 40 degrees Celsius
Description: Initially, at S110, a head 216 of a printing device 208 is dismantled. The head 216 of the printing device 208 may include a plurality of head nozzles 218 operative to dispense a liquid therefrom. The printing device 208 may be a piezoelectric apparatus, or any other suitable apparatus. The printing device 208 may accurately (e.g., within 5% of a nominal range) output a range of drop sizes (e.g., 2-80 picolitres) at a relatively high dispensing frequency (e.g., 1000-3000 drops per second). The printing device 208 may operate based on an inverse piezoelectric effect, whereby a piezoelectric element is deformed under the influence of an electric field. […] In one or more embodiments, the printing device 208 may include a thermo sensor 230 to control the temperature of the head 216 to avoid heating the medicine to a temperature that results in decomposition of the medicine. […] It is noted that the ranges of acceptable temperatures may be analyzed, as cooling may affect viscosity of the medicine. […] The inventors note that, per their research on the use of vitamin C in a piezoelectric apparatus, during application of the medicine to the porous media, heat resulting from the use of the piezoelectric apparatus occurred above 40 degrees Celsius, as vitamin C was destroyed and its presence was not detected during chromatography. […]

[4] = solubility in water/alcohol solutions; settings: water/alcohol solutions of the abovementioned concentrations

quantity desorbed to potable water ([1]; 1 cm^2 fiberglass membrane (Algstrem), 300±2 mg applied): 246±2 | share of applied quantity desorbed to potable water ([1]; 1 cm^2 fiberglass membrane): 82% | possible quantity that can be applied on 1 cm^2 (unit area) [2]: 300 ± 2 mg
SMILES: CC(C)Cc1ccc(C(C)C(=O)O)cc1 (centres unmarked) [d, 1-2-(4-isobutylphenyl)-propionic acid]

stability during application to porous media with piezoelectric apparatus [3]: destroyed
SMILES: O=C1O[C@H]([C@@H](O)CO)C(O)=C1O [vitamin C]

solubility in water/alcohol solutions [4]: ~100%
SMILES: CC(=O)Oc1ccccc1C(=O)O [acetylsalicylic acid]
